Patent US20090220438A1, “CHROMEN-4-ONE DERIVATIVES AS SELF-TANNING SUBSTANCE” (MERCK PATENT GMBH, priority 2006, published 2009)

Experiments:
[1] = test system: primary normal human melanocytes (R6-NHEM-2); assay: Melanogenesis assay (melanin content after 240 hours incubation, OD at 405 nm against melanin standard); format: cell-based; settings: for Melanin: 240 hours incubation
Method: The action of the compounds of the formula I as tanning agents is tested through the ability to increase melanin synthesis. The reference used is kojic acid, which acts on melanin synthesis and prevents a possible brown coloration of the skin. It can be seen from Table 1 that the compounds Ia to 1 g according to the invention are distinguished by the fact that—after topical application—they induce the formation of skin-inherent pigments in the skin, increase melanin synthesis in the skin and in this way produce enhanced tanning of the skin. They have no adverse health effects, are non-irritant and easy to handle, and the resultant hue naturally corresponds to that of the natural healthy skin colour. The tanning obtained is light-fast and cannot be washed off since it corresponds to natural tanning. To this end, primary normal human melanocytes (R6-NHEM-2)* are cultivated in 24 microtitre plates (96-well, 120,000 cells per tube). Two additional plates are carried out, one for evaluation of the viability of the cells (standard MTT assay) and a second for protein investigation (using a […] standard protocol). After 50% confluence, the culture medium is replaced by fresh culture medium which comprises either the control solution (KA or IBMX) or the 7 solutions to be investigated. Each experiment is repeated 3 times. The cells are incubated at 37° C. (and 5% CO2) for 240 hours, during which the medium is changed every 3 days. After incubation, monolayers are rinsed, the cells are destroyed, and melanin is extracted by means of a 0.5 M NaOH solution. *NHEM-2=normal human epidermal melanocytes (cell type) The optical density (OD) of each experimentally determined value is measured at 405 nm against the melanin standard (standard curve 0.39 to 100 μg/ml of melanin, Sigma M8631). The measurement results are quoted in μg/ml of melanin and in percent of the negative untreated control.

[2] = Tanning activity of intermediates or precursors (statement, no method given)
[3] = Homo sapiens, Melanocyte, 240 h, 1.6 μM, percent of the negative untreated control
[4] = Homo sapiens, Melanocyte, 240 h, 8 μM, percent of the negative untreated control
[5] = Homo sapiens, Melanocyte, 240 h, 40 μM, percent of the negative untreated control
[6] = Homo sapiens, Melanocyte, 240 h, 200 μM, percent of the negative untreated control

Row | Structure (SMILES) | Melanin ([1]; 1.6 μM) [µg/mL] | Melanin ([1]; 8 μM) [µg/mL] | activity at 1.6 µM [1, 3] [%] | activity at 8 µM [1, 4] [%] | Melanin ([1]; 40 μM) [µg/mL] | Melanin ([1]; 200 μM) [µg/mL] | activity at 40 µM [1, 5] [%] | activity at 200 µM [1, 6] [%] | also measured
1 | O=c1ccoc2c(O)c(O)ccc12 [Ig, 7,8-dihydroxychromen-4-one] | 19.9 | 19.8 | 100 | 100 | – | – | – | – | Melanin ([1]; 0.32 μM): 20.7 µg/mL; activity at 0.32 µM ([1]; Homo sapiens, Melanocyte, 240 h, 0.32 μM, percent of the negative untreated control): 104%
2 | COCC(=O)c1c(COC)oc2cc(O)cc(O)c2c1=O [IIa, 5,7-dihydroxy-3-(2-methoxyacetyl)-2-methoxymethyl-1-benzopyran-4-one] | – | – | – | – | – | – | – | – | Tanning activity (in words) [2]: have a tanning activity
3 | Cc1oc2cc(O)cc(O)c2c(=O)c1O [Ie, 2-methyl-3,5,7-trihydroxychromen-4-one] | – | 20.6 | – | 104 | 23.9 | 27.2 | 121 | 138 | –
4 | O=c1cc(CO)occ1O [Kojic acid, kojic acid, reference compound] | – | – | – | – | – | – | – | – | Melanin ([1]; 560 μM): 5.55 µg/mL; activity at 560 µM ([1]; Homo sapiens, Melanocyte, 240 h, 560 μM, percent of the negative untreated control): 55%
5 | O=c1c(O)c(CO)oc2cc(O)cc(O)c12 [Ic] | – | 20.8 | – | 105 | 23.8 | 27.6 | 120 | 139 | –
6 | COCc1oc2cc(O)cc(O)c2c(=O)c1OC [Ib, 5,7-dihydroxy-3-methoxy-2-methoxymethylchromen-4-one] | – | 20.9 | – | 106 | 23.7 | 25.2 | 120 | 128 | –
7 | CC(C)Cn1c(=O)n(C)c(=O)c2[nH]cnc21 [IBMX, 3-isobutyl-1-methylxanthine, reference compound] | – | – | – | – | – | 15.39 | – | 166 | –
8 | O=c1ccoc2cc(O)ccc12 [If, 7-hydroxychromen-4-one] | 19.9 | 20.3 | 100 | 102 | 24.7 | – | 124 | – | –
9 | COCc1cc(=O)c2c(O)cc(O)cc2o1 [Ia, 5,7-dihydroxy-2-methoxymethylchromen-4-one] | – | – | – | – | – | – | – | – | Melanin ([1]; 50 μM): 17.87 µg/mL; Melanin ([1]; 150 μM): 22.14 µg/mL; Melanin ([1]; 450 μM): 19.98 µg/mL; activity at 50 µM ([1]; Homo sapiens, Melanocyte, 240 h, 50 μM, percent of the negative untreated control): 192%; activity at 150 µM ([1]; Homo sapiens, Melanocyte, 240 h, 150 μM, percent of the negative untreated control): 239%; activity at 450 µM ([1]; Homo sapiens, Melanocyte, 240 h, 450 μM, percent of the negative untreated control): 215%
10 | COc1c(C)oc2cc(O)cc(O)c2c1=O [Id, 5,7-dihydroxy-3-methoxy-2-methylchromen-4-one] | 20.8 | 22.0 | 106 | 112 | 27.0 | – | 137 | – | –
